Test results: ChEMBL document CHEMBL5113503, “Synthesis and biological evaluation of 4-(4-aminophenyl)-6-methylisoxazolo[3,4-b] pyridin-3-amine covalent inhibitors as potential agents for the treatment of acute myeloid leukemia” (Bioorg Med Chem, 2022)

What was measured:
[1] = target: T1, Receptor-type tyrosine-protein kinase FLT3 (Homo sapiens, UniProt P36888); assay: Inhibition of FLT3 (unknown origin) preincubated with compound for 10 mins followed by substrate addition and measured after 1 hrs by ADP-Glo kinase assay
T1 sequence (P36888 whole entry): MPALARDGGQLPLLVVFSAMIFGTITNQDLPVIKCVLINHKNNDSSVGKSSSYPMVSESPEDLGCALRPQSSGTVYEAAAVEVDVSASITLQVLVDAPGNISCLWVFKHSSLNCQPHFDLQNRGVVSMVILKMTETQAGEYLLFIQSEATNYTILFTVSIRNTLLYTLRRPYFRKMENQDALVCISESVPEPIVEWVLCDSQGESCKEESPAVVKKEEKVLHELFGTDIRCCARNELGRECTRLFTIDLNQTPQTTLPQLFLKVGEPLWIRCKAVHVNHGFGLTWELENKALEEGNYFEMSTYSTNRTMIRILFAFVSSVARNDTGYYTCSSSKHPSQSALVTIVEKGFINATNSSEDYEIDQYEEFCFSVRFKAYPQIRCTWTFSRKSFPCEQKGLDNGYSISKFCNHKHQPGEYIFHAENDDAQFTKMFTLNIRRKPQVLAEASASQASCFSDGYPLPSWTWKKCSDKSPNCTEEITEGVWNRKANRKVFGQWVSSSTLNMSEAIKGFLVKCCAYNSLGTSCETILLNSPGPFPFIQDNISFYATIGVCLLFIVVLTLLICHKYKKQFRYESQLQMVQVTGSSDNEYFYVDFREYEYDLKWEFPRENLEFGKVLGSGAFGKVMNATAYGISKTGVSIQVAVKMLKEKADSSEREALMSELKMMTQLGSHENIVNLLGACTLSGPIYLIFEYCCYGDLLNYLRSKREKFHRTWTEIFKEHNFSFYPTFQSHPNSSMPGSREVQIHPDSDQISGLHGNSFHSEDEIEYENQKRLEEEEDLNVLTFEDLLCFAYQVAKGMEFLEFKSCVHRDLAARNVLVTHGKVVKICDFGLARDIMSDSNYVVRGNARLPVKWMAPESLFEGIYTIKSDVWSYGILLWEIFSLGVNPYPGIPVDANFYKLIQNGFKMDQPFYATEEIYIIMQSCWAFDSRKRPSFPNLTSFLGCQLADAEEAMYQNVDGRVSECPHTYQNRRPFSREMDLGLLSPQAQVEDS

MOLM-13 = assay: Antiproliferative activity against human MOLM-13 cells harboring FLT3-ITD mutant assessed as cell growth inhibition measured after 72 hrs by CCK8 assay; details: MOLM-13, 72 h
MV4-11 [2] = assay: Antiproliferative activity against human MV4-11 cells harboring FLT3-ITD mutant assessed as cell growth inhibition measured after 72 hrs by CCK8 assay; details: MV4-11, 72 h
HL-60 = assay: Antiproliferative activity against human HL-60 cells harboring wildtype FLT3 assessed as cell growth inhibition measured after 72 hrs by CCK8 assay; details: HL-60, 72 h
A549 = assay: Antiproliferative activity human A549 cells assessed as cell growth inhibition measured after 72 hrs by CCK8 assay; details: A549, 72 h
[3] = Cytotoxicity against HUVEC cells assessed as cell growth inhibition measured after 72 hrs by CCK8 assay; format: toxicity, cell-based; details: human
MV4-11 [4] = assay: Induction of apoptosis in human MV4-11 cells assessed as early apoptotic cells at 2.5 uM measured after 48 hrs by Annexin V-FITC/PI double staining based flow cytometric analysis (reference value: 2.04 %); format: functional
MV4-11 [5] = assay: Induction of apoptosis in human MV4-11 cells assessed as necrotic cells at 2.5 uM measured after 48 hrs by Annexin V-FITC/PI double staining based flow cytometric analysis (reference value: 5.67 %); format: functional
MV4-11 [6] = assay: Induction of apoptosis in human MV4-11 cells assessed as early apoptotic cells at 0.5 uM measured after 48 hrs by Annexin V-FITC/PI double staining based flow cytometric analysis (reference value: 2.04 %); format: functional
MV4-11 [7] = assay: Induction of apoptosis in human MV4-11 cells assessed as late apoptotic cells at 0.5 uM measured after 48 hrs by Annexin V-FITC/PI double staining based flow cytometric analysis (reference value: 12.03 %); format: functional
MV4-11 [8] = assay: Induction of apoptosis in human MV4-11 cells assessed as necrotic cells at 0.5 uM measured after 48 hrs by Annexin V-FITC/PI double staining based flow cytometric analysis (reference value: 5.67 %); format: functional
MV4-11 [9] = assay: Induction of apoptosis in human MV4-11 cells assessed as early apoptotic cells at 0.1 uM measured after 48 hrs by Annexin V-FITC/PI double staining based flow cytometric analysis (reference value: 2.04 %); format: functional
MV4-11 [10] = assay: Induction of apoptosis in human MV4-11 cells assessed as late apoptotic cells at 0.1 uM measured after 48 hrs by Annexin V-FITC/PI double staining based flow cytometric analysis (reference value: 12.03 %); format: functional
MV4-11 [11] = assay: Induction of apoptosis in human MV4-11 cells assessed as necrotic cells at 0.1 uM measured after 48 hrs by Annexin V-FITC/PI double staining based flow cytometric analysis (reference value: 5.67 %); format: functional
[12] = target: T2, Signal transducer and activator of transcription 5A (Homo sapiens) (UniProt P42229); assay: Inhibition of STAT5 phosphorylation in human MV4-11 cells incubated for 12 hrs by Western blot analysis; format: cell-based; details: dose 0.1-2.5 µM, DDE = dose-dependent effect
T2 sequence (whole entry): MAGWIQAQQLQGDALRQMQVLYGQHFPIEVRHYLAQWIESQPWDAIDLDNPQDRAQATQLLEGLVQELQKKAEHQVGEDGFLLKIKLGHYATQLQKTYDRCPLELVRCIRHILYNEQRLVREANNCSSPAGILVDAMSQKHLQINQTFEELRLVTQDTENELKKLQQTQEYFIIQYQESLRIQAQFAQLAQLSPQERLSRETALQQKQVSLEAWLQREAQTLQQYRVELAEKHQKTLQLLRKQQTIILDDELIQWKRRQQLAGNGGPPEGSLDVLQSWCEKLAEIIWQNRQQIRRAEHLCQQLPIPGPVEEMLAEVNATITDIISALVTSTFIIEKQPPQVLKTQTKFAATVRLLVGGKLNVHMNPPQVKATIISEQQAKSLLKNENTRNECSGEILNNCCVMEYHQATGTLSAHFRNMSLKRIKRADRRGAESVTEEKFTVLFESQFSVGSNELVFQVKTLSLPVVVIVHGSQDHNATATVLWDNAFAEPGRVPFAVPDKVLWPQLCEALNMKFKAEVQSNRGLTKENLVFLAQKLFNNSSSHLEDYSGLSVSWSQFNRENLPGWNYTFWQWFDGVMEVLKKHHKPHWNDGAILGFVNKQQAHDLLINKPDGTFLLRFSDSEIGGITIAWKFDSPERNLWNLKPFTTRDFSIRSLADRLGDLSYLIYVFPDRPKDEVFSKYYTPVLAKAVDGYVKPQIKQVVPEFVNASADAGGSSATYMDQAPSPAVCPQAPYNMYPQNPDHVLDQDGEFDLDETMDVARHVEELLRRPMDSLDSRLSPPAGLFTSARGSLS

## C=CC(=O)Nc1ccc(NC(=O)Nc2ccc(-c3cc(C)nc4noc(N)c34)cc2)cc1
[1]
  IC50: 0.256 µM
MOLM-13
  IC50: 0.507 µM
MV4-11 [2]
  IC50: 0.325 µM
HL-60
  IC50: > 10 µM
A549
  IC50: > 10 µM
[3]
  IC50 at 72 h: > 10 µM
MV4-11 [4]
  Activity: 1.5%
MV4-11 [5]
  Activity: 9.56%
MV4-11 [6]
  Activity: 2.43%
MV4-11 [7]
  Activity: 14.58%
MV4-11 [8]
  Activity: 5.47%
MV4-11 [9]
  Activity: 1.83%
MV4-11 [10]
  Activity: 11.88%
MV4-11 [11]
  Activity: 4.51%
[12]
  inhibition: Dde
